Data on twelve compounds can be found in ChEMBL document CHEMBL1250444, “Nitric oxide activates TRP channels by cysteine S-nitrosylation” (Nat Chem Biol, 2006).

Activity calls are given as the source filed them. The rule behind the calls is not given here.

Experiment [1] has as its target T1, Short transient receptor potential channel 5 (Homo sapiens) (UniProt Q9UL62).
T1 sequence (whole entry): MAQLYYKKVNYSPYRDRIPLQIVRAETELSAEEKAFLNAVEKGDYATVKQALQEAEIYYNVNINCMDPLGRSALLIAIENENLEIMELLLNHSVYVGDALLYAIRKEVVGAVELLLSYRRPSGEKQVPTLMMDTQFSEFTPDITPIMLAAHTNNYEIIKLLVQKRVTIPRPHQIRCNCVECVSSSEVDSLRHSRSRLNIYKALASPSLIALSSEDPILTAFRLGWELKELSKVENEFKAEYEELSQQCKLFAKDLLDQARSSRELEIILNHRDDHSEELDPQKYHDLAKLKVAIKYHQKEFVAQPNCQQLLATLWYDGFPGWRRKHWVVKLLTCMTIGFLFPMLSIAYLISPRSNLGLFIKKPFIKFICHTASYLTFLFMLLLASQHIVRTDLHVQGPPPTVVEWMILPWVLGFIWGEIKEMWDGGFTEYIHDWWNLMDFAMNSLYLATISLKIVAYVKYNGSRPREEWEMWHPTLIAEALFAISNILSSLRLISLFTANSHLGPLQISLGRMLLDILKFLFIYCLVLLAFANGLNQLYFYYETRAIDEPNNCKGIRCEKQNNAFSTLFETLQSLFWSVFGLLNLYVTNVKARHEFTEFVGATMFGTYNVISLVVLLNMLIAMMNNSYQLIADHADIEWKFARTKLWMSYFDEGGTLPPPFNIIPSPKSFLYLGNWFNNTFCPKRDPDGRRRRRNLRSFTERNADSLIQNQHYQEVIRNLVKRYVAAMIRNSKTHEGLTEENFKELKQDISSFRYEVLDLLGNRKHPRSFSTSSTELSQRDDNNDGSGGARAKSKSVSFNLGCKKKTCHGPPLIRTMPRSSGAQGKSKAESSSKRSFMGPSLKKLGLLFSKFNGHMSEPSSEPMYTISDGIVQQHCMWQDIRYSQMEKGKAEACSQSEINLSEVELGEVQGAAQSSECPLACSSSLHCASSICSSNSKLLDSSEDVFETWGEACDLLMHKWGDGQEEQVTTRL
Description: Induction of S-nitrosylation of TRPC5 in HEK cells assessed as increase in Ca2+ level from extracellular space at 5 mM extracellular administration. Type of experiment: cell-based. To be noted: HEK293.

Experiment [2] concerns the target T1, Short transient receptor potential channel 5 (Homo sapiens). Description: Induction of S-nitrosylation of TRPC5 in HEK cells assessed as increase in Ca2+ level from extracellular space at 50 uM. Type of experiment: cell-based. To be noted: HEK293.
Experiment [3] shares this target. Description: Induction of S-nitrosylation of TRPC5 in HEK cells assessed as increase in Ca2+ level from extracellular space at 10 uM. Type of experiment: cell-based. To be noted: HEK293.
Experiment [4] has the same target. The experiment is described as follows: Induction of S-nitrosylation of TRPC5 in HEK cells assessed as increase in Ca2+ level from extracellular space at 1 mM. It counts as cell-based. To be noted: HEK293.
Experiment [5] shares this target. Description: Induction of S-nitrosylation of TRPC5 in HEK cells assessed as increase in Ca2+ level from extracellular space at 5 mM. To be noted: HEK293. Type of experiment: cell-based.
Experiment [6] deals with BAEC. Description: Inhibition of NO production in BAEC assessed as inhibition of Ca2+ influx at 1 mM. It counts as functional, cell-based. As to conditions: Bos taurus.
Experiment [7] concerns BAEC. The experiment is described as follows: Inhibition of NO production in BAEC assessed as inhibition of Ca2+ influx at 10 mM. It counts as functional, cell-based. To be noted: Bos taurus.
For experiment [8], the target named is T1, Short transient receptor potential channel 5 (Homo sapiens). The experiment is described as follows: Induction of S-nitrosylation of TRPC5 in HEK cells assessed as inhibition of incorporation of DTNB-2Bio at 30 uM. It counts as cell-based. To be noted: HEK293.
Experiment [9] relates to DT40. The experiment is described as follows: Induction of P2Y mediated TRPC5 S-nitrosylation in chicken DT40 cells assessed as increase in Ca2+ level from extracellular space at 100 uM in presence of PLC-beta inhibitor U73122. Type of experiment: cell-based.
The test system of experiment [10] is BAEC. Description: Inhibition of NO production in BAEC at 300 uM. It counts as functional, cell-based. To be noted: Bos taurus.
In experiment [11] the test system is BAEC. Description: Inhibition of NO production in BAEC assessed as inhibition of Ca2+ influx at 300 uM. It counts as functional, cell-based. To be noted: Bos taurus.

Regarding `C[N+](C)(C)CCSS(C)(=O)=O`, the result in [1] was inactive.

Take `c1cc(SSc2ccncc2)ccn1`: in experiment [2], the outcome was Active.

As to `O=c1onc2cnc3ccccc3n12`, in experiment [3], the outcome was inactive.

Consider `[NH-]c1c[n+](N2CCOCC2)no1`, for which the outcome in experiment [4] was Active.

As for `CC/C(=C\C(=N\O)C(N)=O)C(C)[N+](=O)[O-]` (racemic), the result in experiment [5] was Active.

Turning to `O=C1O[C@H]([C@@H](O)CO)C(O)=C1O`, the inhibition entry in experiment [6] is “Active”.

On to `O=C(O)c1cc(SSc2ccc([N+](=O)[O-])c(C(=O)O)c2)ccc1[N+](=O)[O-]`, for which the outcome in experiment [2] was Active.

For `CC(=O)N[C@@H](CS)C(=O)O`, the inhibition entry in [7] is “Active”.

On to `O=C(CCCC[C@@H]1SC[C@@H]2NC(=O)N[C@@H]21)NCCCCCNC(=O)c1cc(SSc2ccc([N+](=O)[O-])c(C(=O)NCCCCCNC(=O)CCCC[C@@H]3SC[C@@H]4NC(=O)N[C@@H]43)c2)ccc1[N+](=O)[O-]`, for which, in [8], the result was Active.

`CS(=O)(=O)SCCN`: the outcome in experiment [1] was Active.

For `Nc1ncnc2c1ncn2[C@@H]1O[C@H](COP(=O)(O)OP(=O)(O)OP(=O)(O)O)[C@@H](O)[C@H]1O`, the outcome in experiment [9] was inactive.

For `COC(=O)[C@@H](N)CCCNC(=N)N[N+](=O)[O-]`, the inhibition entry in experiment [10] and in experiment [11] was “Active” each time.
